{
  "source": "patent US20030134264A1",
  "about": "“Method of preventing darkening of skin or inhibiting melanization of melenin monomer and polymerization inhibitor of biological dihydroxyindole compound” (SHISEIDO COMPANY, LTD., priority 2001, published 2003)",
  "test": "Inhibition of melanization of DHICA by ultraviolet rays (absorbance at 405 nm, microplate)",
  "conditions": "FL-20BLB fluorescent lamp, long wavelength UV, absorbance 405 nm",
  "protocol": "DHICA can be synthesized by a known method. 0.01 to 1.0 mg/ml of DHICA or its sodium salt is dissolved in water or a buffer such as phosphate buffer and 100 to 200 μl amounts distributed into microplate wells. A fluorescent lamp or solar simulator or monochrometer is used to irradiate this with ultraviolet rays for 10 minutes to 3 hours, then the absorbance at 405 nm is measured by a microplate reader to evaluate the amount of black-brown melanin.\n0.01 to 1.0 mg/ml of DHICA or its sodium salt is dissolved in water or a buffer such as a phosphate buffer and 100 to 200 μl amounts distributed into microplate wells. Compounds or plant extracts prepared at various concentrations are added in 1 to 100 μl amounts or before addition a fluorescent lamp or solar simulator or monochrometer is used to irradiate this with ultraviolet rays for 10 minutes to 3 hours, then the absorbance of 405 nm is measured by a microplate reader to evaluate the extent of black-brown melanin and evaluate the effect of the compound or plant extract.\nThe action of an inhibitor containing vitamin C and its derivatives as effective ingredients in inhibiting melanization of DHICA due to ultraviolet rays was evaluated by the following effect of inhibition of melanization of DHICA due to ultraviolet rays.\n(§1) 0.01 to 1.0 mg/ml of DHICA or its sodium salt is dissolved in water and 100 μl amounts distributed into microplate wells. 100 μl of ascorbic acid or its derivative adjusted to various concentrations was added and an FL-20BLB fluorescent lamp used to irradiate long wavelength ultraviolet rays. The absorbance at 405 nm was measured by a microplate reader to evaluate the amount of black-brown melanin and evaluate the effect of the compound.\nas §1, with “The action of an inhibitor containing 3-O-ethyl ascorbic acid as effective ingredients in inhibiting melanization of DHICA due to ultraviolet rays was evaluated by the following effect of inhibition of melanization of DHICA due to ultraviolet rays. 0.01” for “0.01”, “the extent” for “the amount”",
  "data": [
    {"smiles": "CCOC1=C(O)C(=O)O[C@@H]1[C@@H](O)CO", "note": "[3-O-ethyl ascorbic acid]", "values": [
      {"measurement": "Rate of inhibition of UV-introduced melanization of DHICA (%)", "setting": "sample concentration 0.01%", "result": 40, "unit": "%"},
      {"measurement": "Rate of suppression of UV-induced melanization of DHICA (%)", "setting": "sample concentration 0.01%", "result": 40, "unit": "%"},
      {"measurement": "Rate of inhibition of UV-introduced melanization of DHICA (%)", "setting": "sample concentration 0.1%", "result": 80, "unit": "%"},
      {"measurement": "Rate of suppression of UV-induced melanization of DHICA (%)", "setting": "sample concentration 0.1%", "result": 80, "unit": "%"}
    ]},
    {"smiles": "O=C1O[C@H]([C@@H](O)CO)C(O)=C1O[C@H]1O[C@H](CO)[C@@H](O)[C@H](O)[C@H]1O", "note": "[AA-2G, Ascorbate-2-O-α-glucoside]", "values": [
      {"measurement": "Rate of inhibition of UV-introduced melanization of DHICA (%)", "setting": "sample concentration 0.1%", "result": 20, "unit": "%"},
      {"measurement": "Rate of suppression of UV-induced melanization of DHICA (%)", "setting": "sample concentration 0.1%", "result": 20, "unit": "%"}
    ]},
    {"smiles": "O=C1O[C@H]([C@@H](O)CO)C([O-])=C1OP(=O)([O-])[O-].O=C1O[C@H]([C@@H](O)CO)C([O-])=C1OP(=O)([O-])[O-].[Mg+2].[Mg+2].[Mg+2]", "note": "[APM, Magnesium ascorbate phosphate ester]", "values": [
      {"measurement": "Rate of inhibition of UV-introduced melanization of DHICA (%)", "setting": "sample concentration 0.1%", "result": 20, "unit": "%"}
    ]},
    {"smiles": "O=C1O[C@H]([C@@H](O)CO)C(O)=C1O", "note": "[Ascorbic acid]", "values": [
      {"measurement": "Rate of inhibition of UV-introduced melanization of DHICA (%)", "setting": "sample concentration 0.1%", "result": 70, "unit": "%"},
      {"measurement": "Rate of suppression of UV-induced melanization of DHICA (%)", "setting": "sample concentration 0.1%", "result": 70, "unit": "%"}
    ]}
  ]
}
